Measurements reported in patent publication US4724233A, “Therapeutical application of phosphonylmethoxyalkyl adenines” (Stichting Rega VZW, priority 1985, dated 1988).
In brackets after ≈: the same amount, converted by molar mass. Where two headings read alike, the source gives them in different places.

Experiments:
[1] = tested on: HSV-1 (strain) TK^- B2006; experiment: inhibition of cytopathic effect of HSV-1 TK- strain B2006; assay type: cell-based, herpes simplex virus type 1
Coxsackie B4 = experiment: inhibition of cytopathic effect of Coxsackie B4; assay type: cell-based; conditions: Table 3; Vero B, HeLa cells
Measles = experiment: inhibition of cytopathic effect of measles; assay type: cell-based; conditions: Table 3; Vero Flow cells
HSV-2 (strain) 196 = experiment: inhibition of cytopathic effect of HSV-2 strain 196; assay type: cell-based, herpes simplex virus type 2; conditions: Table 4, HSV-2 196, PRK cells
PRK cells [2] = experiment: antimetabolic activity: incorporation of 3H-labeled precursors into primary rabbit kidney cells
[3] = tested on: HSV-1 (strain) TK^- C1101; experiment: inhibition of cytopathic effect of HSV-1 TK- strain C1101; assay type: cell-based, herpes simplex virus type 1
Moloney sarcoma = experiment: inhibition of Moloney sarcoma virus; assay type: cell-based, Moloney mouse sarcoma virus; conditions: Table 3, MO cells
PRK cells [4] = conditions: 72 h
Reovirus = experiment: inhibition of cytopathic effect of reovirus; assay type: cell-based; conditions: Table 3; Vero B cells
Vesicular stomatitis = experiment: microbe, parasite or virus in culture; assay type: cell-based
Herpes simplex 2 (G) = experiment: inhibition of cytopathic effect of herpes simplex 2 (G); assay type: cell-based, herpes simplex virus type 2; conditions: PRK cells; for EC50: Human alphaherpesvirus 2, PRK, read-out: MIC50
[5] = tested on: herpes simplex virus type 1 (HSV-1) (strain KOS); assay type: cell-based; conditions: 100 μg/ml, PRK cells
Parainfluenza 3 = experiment: inhibition of cytopathic effect of parainfluenza 3; assay type: cell-based; conditions: Table 3; Vero B cells
HSV-1 (strain) F = experiment: inhibition of cytopathic effect of HSV-1 strain F; assay type: cell-based, herpes simplex virus type 1; conditions: Table 4, HSV-1 F, PRK cells
HSV-2 (strain) Lyons = experiment: inhibition of cytopathic effect of HSV-2 strain Lyons; assay type: cell-based, herpes simplex virus type 2; conditions: Table 4, HSV-2 Lyons, PRK cells
HSV-1 (strain) McIntyre = experiment: inhibition of cytopathic effect of HSV-1 strain McIntyre; assay type: cell-based, herpes simplex virus type 1; conditions: Table 4, HSV-1 McIntyre, PRK cells
Herpes simplex I (KOS) = experiment: inhibition of cytopathic effect of herpes simplex 1 (KOS); assay type: cell-based, herpes simplex virus type 1; conditions: PRK cells
Polio 1 = experiment: microbe, parasite or virus in culture; assay type: cell-based; conditions: Table 3; HeLa cells
Vaccinia = experiment: microbe, parasite or virus in culture; assay type: cell-based
vaccinia virus (VV) = assay type: cell-based; conditions: 100 μg/ml, PRK cells, average of two determinations
Sindbis = experiment: inhibition of cytopathic effect of Sindbis; assay type: cell-based; conditions: Table 3; Vero B cells
[6] = cited from earlier work
TK^- herpes viruses = conditions: Prusoff et al.; cited from earlier work
CMV (strain) AD 169 = experiment: inhibition of CMV strain AD 169 in HEL cells; assay type: cell-based, cytomegalovirus; conditions: Human betaherpesvirus 5; Table 5; CMV AD 169, HEL cells; read-out: MIC50
CMV (strain) Davis = experiment: inhibition of CMV strain Davis in HEL cells; assay type: cell-based, cytomegalovirus; conditions: Human betaherpesvirus 5, Table 5, read-out: MIC50
[7] = Human alphaherpesvirus 1, PRK, read-out: MIC50
[8] = Human alphaherpesvirus 2, read-out: MIC50
[9] = Human alphaherpesvirus 1, read-out: MIC50

Compound “(RS)-9-(2(3)hydroxy-3(2)-phosphonylmethoxypropyl)adenine [No. 1]” has an MIC50 ([1]; Table 4, HSV-1 TK^- B2006, PRK cells) of 7 µg/mL, an MIC50 (Coxsackie B4) of over 400 µg/mL and an MIC50 (Measles) of over 400 µg/mL. For the same compound, the MIC50 (HSV-2 (strain) 196) was 15 to 70 µg/mL, the “ID50 dUrd incorporation” value (PRK cells [2]; (3H-1',2')dUrd) was 230 µg/mL and the “ID50 Leu incorporation” value (PRK cells [2]; (3H-4,5)Leu) was over 400 µg/mL. For the same compound, the “ID50 Urd incorporation” value (PRK cells [2]; (3H-5)Urd) was over 400 µg/mL, the “ID50 dThd incorporation” value (PRK cells [2]; (3H-methyl) dThd) was 250 µg/mL and the MIC50 ([3]; Table 4, HSV-1 TK^- C1101, PRK cells) was 7 to 20 µg/mL. For the same compound, the MIC50 (Moloney sarcoma) was over 60 µg/mL, the “MCC (minimal cytotoxic concentration)” value (PRK cells [4]) was at least 100 µg/mL and the MIC50 (Reovirus) was over 400 µg/mL. It also gave an MIC50 (Vesicular stomatitis; Table 3, HeLa, PRK cells) of over 400 µg/mL, an MIC50 (Herpes simplex 2 (G); Table 3) of 7 to 20 µg/mL and an MIC50 (Herpes simplex 2 (G); Table 4, HSV-2 G) of 7 to 20 µg/mL. The “Titer of HSV-1” value ([5]; 1 h) was under 1.3 log10 PFU/ml, the “Titer of HSV-1” value ([5]; 24 h) was 3.3 log10 PFU/ml and the “Titer of HSV-1” value ([5]; 48 h) was 4.0 log10 PFU/ml. The “Titer of HSV-1” value ([5]; 72 h) was 3.9 log10 PFU/ml, the MIC50 (Parainfluenza 3) was over 200 µg/mL and the MIC50 (HSV-1 (strain) F) was 15 to 30 µg/mL. For the same compound, the MIC50 (HSV-2 (strain) Lyons) was 7 to 15 µg/mL, the MIC50 (HSV-1 (strain) McIntyre) was 30 µg/mL and the MIC50 (Herpes simplex I (KOS); Table 3) was 20 to 30 µg/mL. It also gave an MIC50 (Herpes simplex I (KOS); Table 4, HSV-1 KOS) of 20 to 30 µg/mL, an MIC50 (Polio 1) of over 400 µg/mL and an MIC50 (Vaccinia; Table 3, PRK cells) of 0.7 to 3.0 µg/mL. For the same compound, the “Titer of VV” value (vaccinia virus (VV); 1 h) was 1.7 log10 PFU/ml, the “Titer of VV” value (vaccinia virus (VV); 24 h) was 1.7 log10 PFU/ml and the “Titer of VV” value (vaccinia virus (VV); 48 h) was 1.2 log10 PFU/ml. The “Titer of VV” value (vaccinia virus (VV); 72 h) was 1.5 log10 PFU/ml and the MIC50 (Sindbis) was over 400 µg/mL.

In the case of Nc1nc2c(ncn2COCCO)c(=O)[nH]1 [ACV, aclycovir, reference compound], the EC50 [1, 7] is given as 70 µg/mL (≈ 311 µM), the EC50 (HSV-2 (strain) 196; [8]) is given as 0.07 µg/mL (≈ 0.311 µM) and the “solubility (in words)” value [6] is given as “low solubility”. For the same compound, the EC50 [3, 7] was 20 µg/mL (≈ 88.8 µM), the “activity against TK^- herpes viruses (in words)” value (TK^- herpes viruses) was “inactive” and the EC50 (Moloney sarcoma; Mus musculus, read-out: MIC50) was 50 µg/mL (≈ 222 µM). It also gave an EC50 (CMV (strain) AD 169) of 30 µg/mL (≈ 133 µM), an EC50 (Vesicular stomatitis; read-out: MIC50) of over 400 µg/mL and an EC50 (Herpes simplex 2 (G); Table 3) of 0.7 µg/mL (≈ 3.11 µM). For the same compound, the EC50 (Herpes simplex 2 (G); Table 4, HSV-2 G) was 0.07 µg/mL (≈ 0.311 µM), the EC50 (HSV-1 (strain) F; [9]) was 0.2 µg/mL (≈ 0.888 µM) and the EC50 (CMV (strain) Davis) was 20 µg/mL (≈ 88.8 µM). The EC50 (HSV-2 (strain) Lyons; [8]) was 0.07 µg/mL (≈ 0.311 µM), the EC50 (HSV-1 (strain) McIntyre; [9]) was 0.1 µg/mL (≈ 0.444 µM) and the EC50 (Herpes simplex I (KOS); Human alphaherpesvirus 1, Table 3, read-out: MIC50) was 0.2 µg/mL (≈ 0.888 µM). For the same compound, the EC50 (Vaccinia; Orthopoxvirus vaccinia, PRK, read-out: MIC50) was 70 µg/mL (≈ 311 µM).
